Drawing on ChEMBL document CHEMBL1156190, “Virtual screening for the identification of novel nonsteroidal glucocorticoid modulators” (J Med Chem, 2010), this text covers Ki, Activity and inhibition for ten molecules.

One assay concerns the target T1, Glucocorticoid receptor (Homo sapiens, UniProt P04150).
T1 sequence (P04150 whole entry): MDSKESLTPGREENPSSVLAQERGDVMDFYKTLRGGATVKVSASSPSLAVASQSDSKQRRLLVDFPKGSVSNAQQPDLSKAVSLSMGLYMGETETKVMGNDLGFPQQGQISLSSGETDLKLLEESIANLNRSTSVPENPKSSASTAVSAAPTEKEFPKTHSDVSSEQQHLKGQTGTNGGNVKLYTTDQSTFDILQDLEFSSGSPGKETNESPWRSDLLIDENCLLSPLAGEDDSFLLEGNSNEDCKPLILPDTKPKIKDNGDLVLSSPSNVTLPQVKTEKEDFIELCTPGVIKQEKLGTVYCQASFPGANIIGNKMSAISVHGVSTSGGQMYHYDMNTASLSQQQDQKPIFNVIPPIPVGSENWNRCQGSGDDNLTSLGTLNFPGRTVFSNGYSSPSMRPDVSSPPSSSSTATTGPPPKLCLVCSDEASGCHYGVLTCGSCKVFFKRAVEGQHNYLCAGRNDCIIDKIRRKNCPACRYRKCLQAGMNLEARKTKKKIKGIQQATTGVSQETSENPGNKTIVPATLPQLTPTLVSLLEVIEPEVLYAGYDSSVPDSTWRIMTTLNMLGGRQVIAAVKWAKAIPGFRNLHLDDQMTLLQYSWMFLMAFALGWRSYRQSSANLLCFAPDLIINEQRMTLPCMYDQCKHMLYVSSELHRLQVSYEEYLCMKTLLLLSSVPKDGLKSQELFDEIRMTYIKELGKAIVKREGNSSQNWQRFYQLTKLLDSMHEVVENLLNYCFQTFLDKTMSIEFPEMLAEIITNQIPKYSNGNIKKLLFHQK
Kind of assay: Displacement of [3H]DEX from human glucocorticoid receptor.

The target of assay [1] is T2, Glucocorticoid receptor (Homo sapiens) (UniProt P04150).
T2 sequence (whole entry): T1 sequence (P04150 whole entry)
The assay is described as follows: Displacement of fluoromone from human glucocorticoid receptor LBD at 10 uM assessed as reduction of maximum polarization by fluorescence polarization assay relative to control. Details: scale not given: the % may be the effect or the level left.

The target of assay [2] is T3, Peroxisome proliferator-activated receptor gamma (Homo sapiens) (UniProt P37231).
T3 sequence (whole entry): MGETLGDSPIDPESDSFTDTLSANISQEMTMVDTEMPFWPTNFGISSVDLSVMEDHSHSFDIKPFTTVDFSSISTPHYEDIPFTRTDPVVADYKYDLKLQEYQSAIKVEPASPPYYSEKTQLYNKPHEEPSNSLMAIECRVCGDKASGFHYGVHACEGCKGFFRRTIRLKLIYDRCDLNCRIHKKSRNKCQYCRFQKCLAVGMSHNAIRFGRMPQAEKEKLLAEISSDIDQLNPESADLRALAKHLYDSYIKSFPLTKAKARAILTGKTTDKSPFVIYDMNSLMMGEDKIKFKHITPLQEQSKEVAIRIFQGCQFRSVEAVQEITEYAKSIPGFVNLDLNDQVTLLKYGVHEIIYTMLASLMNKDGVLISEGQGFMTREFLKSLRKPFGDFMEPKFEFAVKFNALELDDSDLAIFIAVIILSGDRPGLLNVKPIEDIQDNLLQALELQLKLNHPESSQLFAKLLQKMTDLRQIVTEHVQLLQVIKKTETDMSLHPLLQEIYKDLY
Kind of assay: Displacement of fluoromone from human recombinant PPARgamma assessed as reduction of maximum polarization by fluorescence polarization assay.

For assay [3], the target named is T2, Glucocorticoid receptor (Homo sapiens). Kind of assay: Transrepression activity at glucocorticoid receptor in human A549 cells assessed as inhibition of IL-1-alpha-induced IL6 expression at 10 uM after 24 hrs by ELISA. It is filed as cell-based.
Assay [4] has as its target Estrogen receptor beta (Homo sapiens) (UniProt Q92731). Kind of assay: Displacement of fluoromone from human recombinant ERbeta assessed as reduction of maximum polarization by fluorescence polarization assay. For orientation: Polarisation of emitted light reports the rotation of a fluorescent probe.
Assay [5] concerns the target T4, Estrogen receptor (Homo sapiens) (UniProt P03372).
T4 sequence (whole entry): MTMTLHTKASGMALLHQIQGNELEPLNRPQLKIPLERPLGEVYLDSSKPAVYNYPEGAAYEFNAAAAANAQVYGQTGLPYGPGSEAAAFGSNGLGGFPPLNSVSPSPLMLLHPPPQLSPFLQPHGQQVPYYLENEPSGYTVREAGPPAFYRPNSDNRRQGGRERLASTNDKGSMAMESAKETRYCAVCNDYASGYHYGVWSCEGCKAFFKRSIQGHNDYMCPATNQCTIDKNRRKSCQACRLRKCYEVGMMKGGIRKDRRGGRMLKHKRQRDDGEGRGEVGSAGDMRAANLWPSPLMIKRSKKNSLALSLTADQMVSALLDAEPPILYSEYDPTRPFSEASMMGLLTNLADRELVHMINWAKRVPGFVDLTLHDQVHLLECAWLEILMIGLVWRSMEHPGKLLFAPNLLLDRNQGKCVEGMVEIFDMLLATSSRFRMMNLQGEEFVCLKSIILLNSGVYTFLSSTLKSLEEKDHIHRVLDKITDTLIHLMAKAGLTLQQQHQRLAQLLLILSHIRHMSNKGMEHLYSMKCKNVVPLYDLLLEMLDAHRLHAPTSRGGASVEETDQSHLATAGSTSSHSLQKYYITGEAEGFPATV
Kind of assay: Displacement of fluoromone from human recombinant ERalpha assessed as reduction of maximum polarization by fluorescence polarization assay.

Molecules are shown by their SMILES. The source made the active and inactive calls. The rule behind the calls is not given here.

Estrogen receptor beta (Homo sapiens), sequence (Q92731 whole entry): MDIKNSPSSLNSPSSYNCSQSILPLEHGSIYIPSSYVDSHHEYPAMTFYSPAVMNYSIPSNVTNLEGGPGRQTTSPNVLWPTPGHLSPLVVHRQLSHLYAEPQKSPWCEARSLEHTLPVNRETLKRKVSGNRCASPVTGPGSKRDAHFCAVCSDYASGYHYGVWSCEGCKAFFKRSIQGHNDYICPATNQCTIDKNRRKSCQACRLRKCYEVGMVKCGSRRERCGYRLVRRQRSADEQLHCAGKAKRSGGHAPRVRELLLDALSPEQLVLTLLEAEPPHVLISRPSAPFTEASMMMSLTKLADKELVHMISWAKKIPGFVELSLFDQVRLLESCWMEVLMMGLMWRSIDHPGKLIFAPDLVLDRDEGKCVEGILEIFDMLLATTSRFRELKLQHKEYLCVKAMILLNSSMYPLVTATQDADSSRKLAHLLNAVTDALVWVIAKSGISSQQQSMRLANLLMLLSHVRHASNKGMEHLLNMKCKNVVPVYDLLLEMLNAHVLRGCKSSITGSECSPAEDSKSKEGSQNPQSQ

For `C#COc1ccc2c(c1OC)-c1ccc3c(c1[C@H](CC=C)O2)C(C)=CC(C)(C)N3`, the affinity on Glucocorticoid receptor, expressed as Ki, was 4.2 nM. As to `C=C1CCC(Br)C(C)(C)[C@H]1Cc1cc(OC)c(Br)cc1O` (some centres undefined), the affinity on Glucocorticoid receptor corresponds to a Ki of 2470 nM. In the case of `COc1c(Br)cc2ccccc2c1-c1c(OC)c(CO)cc2ccccc12`, the Activity in assay [1] worked out at 50%. For `O=C1CC(c2ccccc2)CC2=C1C(c1cc(Cl)ccc1Cl)Nc1ccccc1N2` (centres undefined), the result in assay [2], in assay [4] and in assay [5] was inactive. In addition, the inhibition result in assay [3] was “inactive”. Further, the Activity in assay [1] came out at 65%. Regarding `C#Cc1cccc2c1-c1ccc3c(c1[C@H](CC=C)O2)C(C)=CC(C)(C)N3`, the Ki (usually a dissociation constant, usually derived from enzyme kinetics or from competition with a known ligand) on Glucocorticoid receptor is 6.9 nM.

Molecule `COc1ccc2c(c1)-c1ccc3c(c1[C@H](c1ccccc1)O2)C(C)=CC(C)(C)N3` yielded a Ki at Glucocorticoid receptor of 18 nM. Still for that read-out and setting: as for `CC#C[C@@]1(O)CC[C@@]2(Cc3ccccc3)c3ccc(C(=O)NCc4ccncc4)cc3CC[C@@H]2C1`, the figure is 2 nM. As for `C=CC[C@@H]1Oc2ccc(OC#N)c(OC)c2-c2ccc3c(c21)C(C)=CC(C)(C)N3`, the inhibition constant (Ki) at Glucocorticoid receptor was found to be 51 nM. Consider `C=C1C(C)CCC(C)(C)[C@@H]1Cc1cc(OC)c(Br)cc1OC(C)=O` (some centres undefined), for which, at Glucocorticoid receptor, the inhibitory constant (Ki) is 4110 nM.

Molecule `C=C1CCC(Br)C(C)(C)[C@@H]1Cc1cc(OC)c(Br)cc1O` (some centres undefined) yielded an inhibition constant (Ki) on Glucocorticoid receptor of 3210 nM.
